Where two headings read alike, the source gives them in different places.
Tests used:
[1] = Non-GLP 4-week repeated high-dose toxicology study; type: in vivo; settings: nicotine 1 mg/kg/day s.c. infusion for 28d; rats
Method: 8D1-IgG4 was dosed i.v. once weekly at 200 mg/kg.
Assessment of toxicity was based on mortality, clinical observations, and body weight during the course of the 28-day study, and at the end of study organ weights, gross anatomic pathology, hematology, serum clinical chemistry, and coagulation was performed. Histopathology of selected tissues (heart, liver, lung, kidney, spleen, skeletal muscle, brain, colon, stomach, ovary, and testis) is pending. Tissues were fixed immediately in formalin, and processed for embedding in paraffin, staining with H&E, and review by a veterinary pathologist.

[2] = rats; cited from earlier work
[3] = cited from earlier work
[4] = mice; cited from earlier work

## CN1CCC[C@H]1c1cccnc1 [nicotine]
[1]
  hematology finding in animals that received nicotine: slight polychromasia
[2]
  LD50: 50 mg/kg
[3]; human adult
  lethal dose (may be as high as): 1.0 to 7.1 mg/kg
[3]; in vivo
  lethal dose (may be as high as): ≥ 500 mg
[4]
  LD50: 3 mg/kg
